From patent publication US6583179B2, “Substituted aminoalkylamide derivatives as antagonists of follicle stimulating hormone” (Ortho-McNeil Pharmaceutical, Inc., priority 1999, dated 2003)

Molecular target: T1, human FSH receptor (Homo sapiens, UniProt P23945)
T1 construct: expressed in transfected cells; host or cells: Chinese Hamster Ovary cells (K-1; ATCC), line rhFSHR-cLUC
T1 sequence (P23945 18-695): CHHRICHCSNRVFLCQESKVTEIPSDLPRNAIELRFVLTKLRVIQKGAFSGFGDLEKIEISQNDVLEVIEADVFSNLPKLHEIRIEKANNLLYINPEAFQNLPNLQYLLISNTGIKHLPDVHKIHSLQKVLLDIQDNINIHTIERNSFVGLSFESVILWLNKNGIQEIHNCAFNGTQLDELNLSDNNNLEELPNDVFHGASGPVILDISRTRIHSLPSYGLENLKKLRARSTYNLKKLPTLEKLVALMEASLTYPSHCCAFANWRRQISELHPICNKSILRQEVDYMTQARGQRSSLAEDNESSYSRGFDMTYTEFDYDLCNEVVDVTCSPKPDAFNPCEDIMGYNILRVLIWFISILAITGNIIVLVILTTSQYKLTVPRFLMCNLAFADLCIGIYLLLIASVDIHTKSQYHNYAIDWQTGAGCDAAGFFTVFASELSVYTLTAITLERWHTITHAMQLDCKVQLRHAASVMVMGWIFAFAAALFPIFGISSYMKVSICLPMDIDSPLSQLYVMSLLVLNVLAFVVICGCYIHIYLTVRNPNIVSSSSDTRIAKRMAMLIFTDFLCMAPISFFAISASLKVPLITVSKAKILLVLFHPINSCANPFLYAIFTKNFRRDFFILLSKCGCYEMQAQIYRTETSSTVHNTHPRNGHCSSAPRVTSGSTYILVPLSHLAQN
Assay: hFSHR CHO cAMP assay (rhFSHR-cLUC cells, FSH-stimulated cAMP, radioimmunoassay)
Format: cell-based
Details: inhibition of cAMP produced by EC70 dose of FSH (4.85 nM); maximum concentration 50 μM
Text: Minimum Essential Medium-Alpha (MEM-alpha), fetal bovine serum (FBS), penicillin, streptomycin, geneticin, trypsin-EDTA, Hanks' Balanced Salt Solution (no Calcium chloride, Magnesium chloride, Magnesium sulfate, or phenol red; Ca-Mg free HBSS) were purchased from Gibco BRL (Gaithersburg, Md.). The cells used for the FSH bioassay (rhFSHR-cLUC) were Chinese Hamster Ovary cells (K-1; ATCC) stably transformed with human FSH receptor (pSVK-FSHr) and a cAMP luciferase reporter gene (responsive CGα-180LUC). Follicle Stimulating Hormone (Metrodin; Fertinex) was purchased from Serono, Ltd. (Norwell, Mass.).
The rhFSHR-cLUC cell cultures were maintained in MEM-Alpha supplemented with 10% heat-inactivated FBS (HIFBS), 100 U/ml penicillin, 100 μg/mL streptomycin, and included 0.1 g/L geneticin for stable cell selection.
Forty-eight hours after the cells were plated in sterile 96-well culture plates (Corning, Corning, N.Y.) the spent media was removed and 50 μl assay media (modified growth media with 2% HIFBS) containing 2 mM IBMX (3-isobutyl-1-methyl-xanthine) was added to the cells. Compounds (25 μl) in the appropriate concentration were added followed 5 minutes later by an EC70 dose of FSH (25 μl; 160 ng/ml; 4.85 nM). After 10 minutes @ 22.5° C. (room temperature) the reaction was terminated by addition of 25 μL 0.5 N hydrochloric acid to each well. The amount of cAMP produced was measured by radioimmunoassay in a FlashPlate (DuPont, Boston, Mass.). To each flash plate 60 μL flash plate buffer was added followed by 40 μL acidified cell sample or cAMP standard, followed with the addition of 100 μl ^125l-cAMP trace. The FlashPlates were sealed, incubated overnight @ room temperature, and counted in a Packard TopCount (Packard Instrument Co., Meriden, Conn.). The cAMP radioimmunoassay results were calculated using DPM conversion and log-logit transformation of % binding (Excel program).
Test compounds were solubilized in 30% dimethyl sulfoxide (DMSO) at a concentration of 10 mM before diluting to appropriate concentrations in assay medium. The final DMSO concentration in the treated cells and in the control cells was 0.75%.
For individual experiments, a set of samples were tested including a vehicle control (assay buffer), a reference compound (hFSH) at a range of concentrations designed to elicit a minimal to maximal response, and several concentrations of test compounds together with an EC70 concentration of standard (hFSH challenge). Each compound was performed in duplicates for the primary evaluation and quadruplicates for the dose-ranging experiments. The cAMP radioimmunoassay raw data (pmol) were calculated to provide average pmol cAMP produced/ml and the percent inhibition was calculated as shown below.
% Inh=[1−(Avg.pmoltest compound+standard)/(Avg.pmolstandard)]×100
EC50 values were calculated from an analysis of the concentration-inhibition data using a linear analysis of the data transformed to a log-logit format.

Point of comparison: COc1ccccc1CCN(CC(=O)NCC1CCCC(CN)C1)S(=O)(=O)c1ccc(-c2ccccc2C)cc1 (stereo not drawn) [Compound 336], EC50 980 nM. Against it:
- COc1ccccc1CCN(CC(=O)N1CCNCC1)S(=O)(=O)c1ccc(-c2ccccc2C)cc1 [Compound 151] — 10-fold higher, 9790 nM
- COc1ccccc1CN(CC(=O)N1CCNCC1)S(=O)(=O)c1ccc(-c2ccccc2C)cc1 [Compound 174] — higher, ≥ 50000 nM
- C[C@H](CN(CC(=O)NCc1ccc(CN)cc1)S(=O)(=O)c1ccc(-c2cccc(F)c2)cc1)c1ccccc1 [Compound 213] — 14-fold lower, 70 nM
- COc1ccccc1CCN(CC(=O)NCc1ccc(CN)cc1)S(=O)(=O)c1ccccc1-c1ccccc1C [Compound 218] — within 1.5-fold, 1200 nM
- COc1ccccc1CCN(CC(=O)NCc1ccc(CN)cc1)S(=O)(=O)c1ccc(-c2cccs2)cc1 [Compound 245] — 5.7-fold higher, 5630 nM
- Cc1ccccc1-c1ccc(S(=O)(=O)N(CC(=O)NCc2ccc(CN)cc2)CC(C)c2ccccc2)cc1 (stereo not drawn) [Compound 311] — 20-fold lower, 50 nM
- Cc1ccccc1-c1ccc(S(=O)(=O)N(CC(=O)NCc2ccc(CN)cc2)C2CC2c2ccccc2)cc1 (stereo not drawn) [Compound 320] — 2.6-fold higher, 2570 nM
- COc1ccccc1CCN(CC(=O)NCC1CCCC(CN)C1)S(=O)(=O)c1ccc(-c2ccccc2Cl)cc1 (stereo not drawn) [Compound 337] — 3.2-fold lower, 310 nM
- COc1ccccc1CCN(CC(=O)NCC1CCCC(CN)C1)S(=O)(=O)c1ccc(-c2ccccc2OC)cc1 (stereo not drawn) [Compound 338] — 2.2-fold lower, 440 nM
- COc1ccccc1CCN(CC(=O)NCC1CCCC(CN)C1)S(=O)(=O)c1ccc(-c2ccc(Cl)cc2Cl)cc1 (stereo not drawn) [Compound 339] — within 1.5-fold, 1100 nM
- COc1ccccc1CN(CC(=O)NCC1CCCC(CN)C1)S(=O)(=O)c1ccc(-c2ccccc2C)cc1 (stereo not drawn) [Compound 340] — 1.5-fold lower, 650 nM
- COc1ccccc1CN(CC(=O)NCC1CCCC(CN)C1)S(=O)(=O)c1ccc(-c2ccccc2Cl)cc1 (stereo not drawn) [Compound 341] — 1.7-fold lower, 570 nM
- COc1ccccc1CN(CC(=O)NCC1CCCC(CN)C1)S(=O)(=O)c1ccc(-c2ccc(Cl)cc2Cl)cc1 (stereo not drawn) [Compound 343] — 1.8-fold lower, 530 nM
- COc1ccccc1CCN(CC(=O)NCc1cccc(CN)c1)S(=O)(=O)c1ccc(-c2ccccc2C)cc1 [Compound 344] — within 1.5-fold, 700 nM
- COc1ccccc1CCN(CC(=O)NCCCCCCN)S(=O)(=O)c1ccc(-c2ccccc2C)cc1 [Compound 352] — 8.9-fold lower, 110 nM
- COc1ccccc1CCN(CC(=O)NCCCCCCN)S(=O)(=O)c1ccc(-c2ccccc2Cl)cc1 [Compound 353] — 7-fold lower, 140 nM
- COc1ccccc1CCN(CC(=O)NCCCCCCN)S(=O)(=O)c1ccc(-c2ccc(Cl)cc2Cl)cc1 [Compound 355] — 2.5-fold lower, 400 nM
- C[C@@H](CN(CC(=O)N1CCC(C2CCNCC2)CC1)S(=O)(=O)c1ccc(-c2ccccc2Cl)cc1)c1ccccc1 [Compound 367] — within 1.5-fold, 1020 nM
- Cc1ccccc1-c1ccc(S(=O)(=O)N(CC(=O)NCC2CCC(CN)CC2)C[C@H](C)c2ccccc2)cc1 (stereo partly drawn) [Compound 372] — 5.2-fold lower, 190 nM
- C[C@@H](CN(CC(=O)NCCCCCN)S(=O)(=O)c1ccc(-c2ccccc2Cl)cc1)c1ccccc1 [Compound 379] — higher, ≥ 50000 nM
- C[C@@H](CN(CC(=O)NCCCCCN)S(=O)(=O)c1ccc(-c2cccc(F)c2)cc1)c1ccccc1 [Compound 380] — within 1.5-fold, 1200 nM
- C[C@@H](CN(CC(=O)NCC1CCCC(CN)C1)S(=O)(=O)c1ccc(-c2ccccc2Cl)cc1)c1ccccc1 (stereo partly drawn) [Compound 385] — 3-fold lower, 330 nM
- C[C@@H](CN(CC(=O)NCC1CCCC(CN)C1)S(=O)(=O)c1ccc(-c2cccc(F)c2)cc1)c1ccccc1 (stereo partly drawn) [Compound 386] — within 1.5-fold, 1170 nM
- C[C@H](CN(CC(=O)NCC1CCCC(CN)C1)S(=O)(=O)c1ccc(-c2ccccc2Cl)cc1)c1ccccc1 (stereo partly drawn) [Compound 388] — within 1.5-fold, 900 nM
- Cc1ccccc1-c1ccc(S(=O)(=O)N(CC(=O)NCc2cccc(CN)c2)C[C@H](C)c2ccccc2)cc1 [Compound 390] — 4.3-fold lower, 230 nM
- C[C@@H](CN(CC(=O)NCCCCCCN)S(=O)(=O)c1ccc(-c2ccccc2Cl)cc1)c1ccccc1 [Compound 397] — 20-fold lower, 50 nM
- C[C@H](CN(CC(=O)NCCCCCCN)S(=O)(=O)c1ccc(-c2cccc(F)c2)cc1)c1ccccc1 [Compound 401] — within 1.5-fold, 1360 nM
- C[C@@H](CN(CC(=O)NCc1ccc(CN(C)C)cc1)S(=O)(=O)c1ccc(-c2ccccc2Cl)cc1)c1ccccc1 [Compound 471] — 51-fold higher, 50000 nM
- CCN(CC)Cc1ccc(CNC(=O)CN(CC(C)c2ccccc2)S(=O)(=O)c2ccc(-c3ccccc3Cl)cc2)cc1 (stereo not drawn) [Compound 472] — higher, > 50000 nM
- CC(=O)NCc1ccc(CNC(=O)CN(C[C@H](C)c2ccccc2)S(=O)(=O)c2ccc(-c3ccccc3Cl)cc2)cc1 [Compound 473] — higher, > 50000 nM
- Cc1ccccc1-c1ccc(S(=O)(=O)N(CC(=O)NCc2ccc(CN(C)C)cc2)C[C@@H](C)c2ccccc2)cc1 [Compound 474] — higher, > 50000 nM
- CCN(CC)Cc1ccc(CNC(=O)CN(C[C@@H](C)c2ccccc2)S(=O)(=O)c2ccc(-c3ccccc3C)cc2)cc1 [Compound 475] — 9.7-fold higher, 9460 nM
- CC(=O)NCc1ccc(CNC(=O)CN(CC(C)c2ccccc2)S(=O)(=O)c2ccc(-c3ccccc3C)cc2)cc1 (stereo not drawn) [Compound 476] — higher, ≥ 50000 nM
- C[C@H](CN(CC(=O)NCc1ccc(CN)cc1)C(=O)c1ccc(-c2ccccc2Cl)cc1)c1ccccc1 [Compound 477] — 7.9-fold higher, 7700 nM
- CC(CN(CC(=O)NC1CCC(CC2CCC(N)CC2)CC1)S(=O)(=O)c1ccc(-c2ccccc2Cl)cc1)c1ccccc1 (stereo not drawn) [Compound 497] — 4.1-fold higher, 4040 nM
- COc1ccc(CCN(CC(=O)NCCCCCCN)S(=O)(=O)c2ccc(-c3ccccc3Cl)cc2)cc1 [Compound 502] — 3.3-fold lower, 300 nM
- C[C@@H](CN(CC(=O)NCc1ccc(CN)cc1)S(=O)(=O)c1ccc(C(C)(C)C)cc1)c1ccccc1 [Compound 555] — 2-fold higher, 1930 nM
- C[C@@H](CN(CC(=O)NCc1ccc(CN)cc1)C(=O)Nc1ccc(-c2ccccc2)cc1)c1ccccc1 [Compound 590] — 2.7-fold higher, 2600 nM
